{"source": "patent US8134015B2", "about": "“Compound inhibiting in vivo phosphorous transport and medicine containing the same” (Kyowa Hakko Kirin Co., Ltd., priority 2003, dated 2012)"}
{"biological_target": "T1, rat NaPi-2b (Rattus norvegicus, UniProt Q9JJ09)", "T1 construct": "expressed in transfected cells; host or cells: Xenopus oocytes injected with cRNA", "T1 sequence (Q9JJ09 1-695)": "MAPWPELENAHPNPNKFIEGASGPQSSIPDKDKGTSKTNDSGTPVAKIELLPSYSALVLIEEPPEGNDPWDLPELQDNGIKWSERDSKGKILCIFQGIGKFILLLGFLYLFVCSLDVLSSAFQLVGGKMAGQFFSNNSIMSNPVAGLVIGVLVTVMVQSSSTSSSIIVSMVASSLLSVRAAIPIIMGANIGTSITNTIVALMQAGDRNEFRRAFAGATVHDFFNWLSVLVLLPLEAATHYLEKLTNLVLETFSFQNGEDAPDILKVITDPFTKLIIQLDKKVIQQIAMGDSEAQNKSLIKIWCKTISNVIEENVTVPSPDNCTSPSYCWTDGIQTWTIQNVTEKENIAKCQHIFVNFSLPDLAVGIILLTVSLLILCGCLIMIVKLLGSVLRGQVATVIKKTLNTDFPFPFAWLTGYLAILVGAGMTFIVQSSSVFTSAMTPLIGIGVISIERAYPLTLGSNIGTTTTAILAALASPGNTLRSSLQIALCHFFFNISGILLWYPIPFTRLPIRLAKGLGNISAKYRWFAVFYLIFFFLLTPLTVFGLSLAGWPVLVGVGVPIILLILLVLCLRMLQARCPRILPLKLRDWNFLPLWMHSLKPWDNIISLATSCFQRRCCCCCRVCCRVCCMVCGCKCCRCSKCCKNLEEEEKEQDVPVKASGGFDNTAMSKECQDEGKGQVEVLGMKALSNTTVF", "assay": "Sodium-dependent phosphate uptake of Xenopus oocytes which expressed NaPi-2b (32P)", "type": "cell-based", "settings": "Xenopus oocytes expressing rat NaPi-2b, 32P radioactive phosphorus; read-out: IC50 (phosphate uptake inhibitory activity)", "protocol": "(§1) Pharmacological Test Example 1\n(§2) Experiment of Sodium-Dependent Phosphate Uptake of Xenopus oocytes which Expressed NaPi-2b\n(§3) Degenerate primers were prepared from sequences of mouse NaPi-2b disclosed in Hilfiker H. et al., Pro Natl Acad Sci USA, 95 (24): 14564-14569, […] and sequences of human and rat NaPi-2a disclosed in Magagnin S. et al., Proc Natl Aca Sci USA, 90 (13): 5979-5983, 1993. RNA was extracted from the rat small intestine using ISOGEN; manufactured by NIPPON GENE CO., LTD (Japan). 400 bp gene fragments were obtained by PCR using, as a template, a cDNA library prepared with a cDNA synthesis kit (manufactured by STRATAGENE (US)). Thereafter, the above rat small intestine cDNA library was screened using the gene fragment as a probe, and the whole gene sequence of rat NaPi-2b was cloned. cRNA was synthesized from the cloned rat NaPi-2b cDNA with a cRNA synthesis kit (manufactured by Ambion (US)). The synthesized cRNA was injected into Xenopus oocytes (obtained from COPACETIC (Japan)) with a liquid microinjector (manufactured by Drummond (US)) and was cultured for 2 days to express rat NaPi-2b. Thereafter, for a group of derivatives, phosphate uptake inhibitory activity were measured using the Xenopus oocytes with ^32P radioactive phosphorus (manufactured by Daiichi Kagaku Inc. (Japan)). […] The inhibitory activity for 300 μM and 100 μM was determined from the same inhibition curve and expressed in percentage inhibition (%) in Table 5.", "units": {"IC50": "µM"}}
{"smiles": "CCN(CC)CCN(C)Cc1cccc(C(=O)Nc2ccc(N3CCN(CCO)CC3)cc2C(=O)N/N=C/c2ccc(Cl)c(C(F)(F)F)c2)c1", "note": "[Compound 924, N-{2-(4-Chloro-3-trifluoromethyl-benzylidene-hydrazinocarbonyl)-4-[4-(2-hydroxy-ethyl)-piperazin-1-yl]-phenyl}-3-{[(2-diethylamino-ethyl)-methyl-amino]-methyl}-benzamide]", "IC50": 40.2}
{"smiles": "COc1ccc(/C=N/NC(=O)c2c(NC(=O)c3cccc(CN4CCC(CO)CC4)c3)sc3c2CCC3)cc1", "note": "[Compound 821, 3-(4-Hydroxymethyl-piperidin-1-ylmethyl)-N-[3-(4-methoxy-benzylidene-hydrazinocarbonyl)-5,6-dihydro-4H-cyclopenta[b]thiophen-2-yl]-benzamide]", "IC50": 17.9}
{"smiles": "Cc1cc(/C=N/NC(=O)c2cc(Cl)ccc2NC(=O)c2ccncc2)oc1C", "note": "[Compound 223, N-[4-Chloro-2-(4,5-dimethyl-furan-2-ylmethylene-hydrazinocarbonyl)-phenyl]-isonicotinamide]", "IC50": 11.3}
{"smiles": "Cc1ccc(CNNC(=O)c2c(C)csc2NC(=O)c2cccc(CSCCCO)c2)cc1C", "note": "[Compound 645, N-{3-[N′-(3,4-Dimethyl-benzyl)-hydrazinocarbonyl]-4-methyl-thiophen-2-yl}-3-(3-hydroxy-propylsulfanylmethyl)-benzamide]", "IC50": "< 3"}
{"smiles": "Cc1ccc(/C=N/NC(=O)c2c(NC(=O)c3cccc(CN(CC(C)O)CC(C)O)c3)sc3c2CCC3)cc1", "note": "(centres unmarked) [Compound 805, 3-{[Bis-(2-hydroxy-propyl)-amino]-methyl}-N-[3-(4-methyl-benzylidene-hydrazinocarbonyl)-5,6-dihydro-4H-cyclopenta[b]-thiophen-2-yl]-benzamide]", "IC50": 4.76}
{"smiles": "COc1ccc(/C=N/NC(=O)c2cc(Br)ccc2NC(=O)c2ccc(OC)c(OC)c2)cc1OC", "note": "[Compound 127, N-[4-Bromo-2-(3,4-dimethoxy-benzylidene-hydrazinocarbonyl)-phenyl]-3,4-dimethoxy-benzamide]", "IC50": 11.6}
{"smiles": "COc1ccc(C(=O)Nc2ccc(N3CCCCC3)cc2C(=O)N/N=C/c2ncc[nH]2)cc1OC", "note": "[Compound 937, N-[2-(1H-Imidazol-2-ylmethylene-hydrazinocarbonyl)-4-piperidin-1-yl-phenyl]-3,4-dimethoxy-benzamide]", "IC50": 137}
{"smiles": "Cc1ccc(/C=N/NC(=O)c2ccccc2NC(=O)c2cccc(OC(F)(F)F)c2)cc1", "note": "[Compound 124]", "IC50": 3.15}
{"smiles": "Cc1csc(NC(=O)c2cccc(CN3CCC(N4CCCCC4)CC3)c2)c1C(=O)N/N=C/c1cccc(F)c1", "note": "[Compound 572, 3-[1,4′]Bipiperidinyl-1′-ylmethyl-N-[3-(3-fluoro-benzylidene-hydrazinocarbonyl)-4-methyl-thiophen-2-yl]-benzamide]", "IC50": 4.12}
{"smiles": "O=C(Nc1ccc(N2CCCCC2)cc1C(=O)N/N=C/c1ccc(Cl)c(C(F)(F)F)c1)c1cccc(CN2CCC(O)CC2)c1", "note": "[Compound 874, N-[2-(4-Chloro-3-trifluoromethyl-benzylidene-hydrazinocarbonyl)-4-piperidin-1-yl-phenyl]-3-(4-hydroxy-piperidin-1-ylmethyl)-benzamide]", "IC50": "< 0.3"}
{"smiles": "CCN(CC)CCN(C)Cc1cccc(C(=O)Nc2ccc(OC)cc2C(=O)N/N=C/c2ccc(OC)cc2)c1", "note": "[Compound 1024, 3-{[(2-Diethylamino-ethyl)-methyl-amino]-methyl}-N-[4-methoxy-2-(4-methoxy-benzylidene-hydrazinocarbonyl)-phenyl]-benzamide]", "IC50": 3.94}
{"smiles": "Cc1cccc(/C=N/NC(=O)c2cc(Br)ccc2NC(=O)c2ccco2)c1", "note": "[Compound 153, Furan-2-carboxylic acid [4-bromo-2-(3-methyl-benzylidene-hydrazinocarbonyl)-phenyl]-amide]", "IC50": 3.5}
{"smiles": "O=C(Nc1ccc(Br)cc1C(=O)N/N=C/C=C/c1ccccc1)c1cccnc1", "note": "[Compound 346, N-[4-Bromo-2-(3-phenyl-allylidene-hydrazinocarbonyl)-phenyl]-nicotinamide]", "IC50": 4.46}
{"smiles": "O=C(Nc1cc2ccccc2cc1C(=O)N/N=C/c1ccc(Cl)c(C(F)(F)F)c1)c1cccc(CN2CCN(CCO)CC2)c1", "note": "[Compound 972, N-[3-(4-Chloro-3-trifluoromethyl-benzylidene-hydrazinocarbonyl)-naphthalen-2-yl]-3-[4-(2-hydroxy-ethyl)-piperazin-1-ylmethyl]-benzamide]", "IC50": "< 3"}
{"smiles": "CCSCCNCc1ccc(C(=O)Nc2ccc(Br)cc2C(=O)N/N=C/c2ccc(C)cc2)cc1", "note": "[Compound 765, N-[4-Bromo-2-(4-methyl-benzylidene-hydrazinocarbonyl)-phenyl]-4-[(2-ethylsulfanyl-ethylamino)-methyl]-benzamide]", "IC50": 6.88}
{"smiles": "Cc1ccc(/C=N/NC(=O)c2ccccc2NC(=O)c2ccncc2)cc1", "note": "[Compound 137, N-[2-(4-Methyl-benzylidene-hydrazinocarbonyl)-phenyl]-isonicotinamide]", "IC50": 3}
{"smiles": "Cc1ccc(/C=N/NC(=O)c2cc(OCCN3CCCCC3)ccc2NC(=O)c2cccc(CSCCO)c2)cc1C", "note": "[Compound 1043, N-[2-(3,4-Dimethyl-benzylidene-hydrazinocarbonyl)-4-(2-piperidin-1-yl-ethoxy)-phenyl]-3-(2-hydroxy-ethylsulfanylmethyl)-benzamide]", "IC50": 8.26}
{"smiles": "CCN1CC(NCc2ccc(C(=O)Nc3ccc(Br)cc3C(=O)N/N=C/c3ccc(C)c(C)c3)cc2)CN1CC", "note": "[Compound 750, N-[4-Bromo-2-(3,4-dimethyl-benzylidene-hydrazinocarbonyl)-phenyl]-4-[(1,2-diethyl-pyrazolidin-4-ylamino)-methyl]-benzamide]", "IC50": "< 3"}
{"smiles": "O=C(Nc1ccc(Br)cc1C(=O)N/N=C/c1ccc(F)cc1)c1ccco1", "note": "[Compound 152, Furan-2-carboxylic acid [4-bromo-2-(4-fluoro-benzylidene-hydrazinocarbonyl)-phenyl]-amide]", "IC50": 1.48}
{"smiles": "COc1ccc(C(=O)Nc2ccc(Br)cc2C(=O)N/N=C/c2ccc(C)cc2)cc1OC", "note": "[Compound 62, N-[4-Bromo-2-(4-methyl-benzylidene-hydrazinocarbonyl)-phenyl]-3,4-dimethoxy-benzamide]", "IC50": 0.9}
{"smiles": "COc1ccc(C(=O)Nc2ccccc2C(=O)N/N=C/c2cccc(F)c2)cc1", "note": "[Compound 47, N-[2-(3-Fluoro-benzylidene-hydrazinocarbonyl)-phenyl]-4-methoxy-benzamide]", "IC50": 4.38}
{"smiles": "Cc1ccc(/C=N/NC(=O)c2ccccc2NC(=O)c2ccncc2)cc1C", "note": "[Compound 138, N-[2-(3,4-Dimethyl-benzylidene-hydrazinocarbonyl)-phenyl]-isonicotinamide]", "IC50": 4.47}
{"smiles": "Cc1cccc(/C=N/NC(=O)c2cc(Br)ccc2NC(=O)c2ccc(CN3CCC(N4CCCCC4)CC3)cc2)c1", "note": "[Compound 310, 4-[1,4′]Bipiperidinyl-1′-ylmethyl-N-[4-bromo-2-(3-methyl-benzylidene-hydrazinocarbonyl)-phenyl]-benzamide]", "IC50": 7.82}
{"biological_target": "T1, rat NaPi-2b", "assay": "Sodium-dependent phosphate uptake of Xenopus oocytes which expressed NaPi-2b (32P)", "type": "cell-based", "settings": "phosphate uptake, oocytes expressing rat NaPi-2b; 300 μM, determined from inhibition curve", "protocol": "as §1, §2, §3", "units": {"inhibition at 300 µM": "%"}}
{"smiles": "COc1ccc(/C=N/NC(=O)c2cc(Br)ccc2NC(=O)c2ccc(CNCCN3CCOCC3)cc2)cc1", "note": "[Compound 715, N-[4-Bromo-2-(4-methoxy-benzylidene-hydrazinocarbonyl)-phenyl]-4-[(2-morpholin-4-yl-ethylamino)-methyl]-benzamide]", "inhibition at 300 µM": 84.1}
{"smiles": "CN1CCCN(c2ccc3nc(-c4cccc(CSCCO)c4)n(/N=C/c4ccc(Cl)c(C(F)(F)F)c4)c(=O)c3c2)CC1", "note": "[Compound 932, 3-[(4-Chloro-3-trifluoromethyl-benzylidene)-amino]-2-[3-(2-hydroxy-ethylsulfanylmethyl)-phenyl]-6-(4-methyl-[1,4]diazepan-1-yl)-3 H-quinazolin-4-one]", "inhibition at 300 µM": 36.1}
{"smiles": "Cc1cccc(/C=N/NC(=O)c2cc(Cl)ccc2NC(=O)c2cccc(CSCc3ccco3)c2)c1", "note": "[Compound 699, N-[4-Chloro-2-(3-methyl-benzylidene-hydrazinocarbonyl)-phenyl]-3-(furan-2-ylmethylsulfanylmethyl)-benzamide]", "inhibition at 300 µM": 58.4}
